The values below come from patent US7704995B2 (Exelixis, Inc., priority 2003, dated 2010).

The structures appear in SMILES notation.

One assay deals with T1, Chk1 (Homo sapiens, UniProt O14757).
T1 construct: purchased Upstate Biotechnology
T1 sequence (O14757 1-476): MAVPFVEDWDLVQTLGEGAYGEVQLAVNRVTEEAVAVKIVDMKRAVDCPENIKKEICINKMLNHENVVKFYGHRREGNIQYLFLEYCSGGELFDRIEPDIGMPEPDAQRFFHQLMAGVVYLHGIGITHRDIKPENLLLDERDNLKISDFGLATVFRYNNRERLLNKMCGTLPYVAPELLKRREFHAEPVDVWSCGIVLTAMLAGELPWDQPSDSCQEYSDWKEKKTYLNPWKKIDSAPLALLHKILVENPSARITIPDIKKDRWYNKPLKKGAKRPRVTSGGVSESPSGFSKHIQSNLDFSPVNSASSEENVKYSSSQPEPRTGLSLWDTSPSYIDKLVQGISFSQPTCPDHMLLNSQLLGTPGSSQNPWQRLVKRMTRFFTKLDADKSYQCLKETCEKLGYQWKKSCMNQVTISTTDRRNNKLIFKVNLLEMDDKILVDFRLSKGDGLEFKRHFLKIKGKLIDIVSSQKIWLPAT
Kind of assay: Chk1 kinase assay: incorporation of γ-33P ATP into immobilized myelin basic protein. The class given is biochemical. Conditions: Table 11, Chk1 only; class symbols A-D; read-out: Chk1 IC50. The essentials: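 Immobilized-MBP radiometric kinase assay, room temperature for 1 h; ATP 10 μM (Chk1, 10 nM enzyme) or 30 μM (Chk2, 20 nM enzyme) with 33P tracer. Values are IC50s, with Ki derived from them.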
For the compound `Nc1ncc(-c2cccc(CNC(=O)c3ccno3)c2)nc1C(=O)N[C@H]1CCCNC1` [Example 990, 3-amino-6-(3-{[(isoxazol-5-ylcarbonyl)amino]methyl}phenyl)-N-[(3S)-piperidin-3-yl]pyrazine-2-carboxamide], the IC50 was under 50 nM.

`Nc1ncc(-c2cccc(CNC(=O)c3ccc(F)cc3)c2)nc1C(=O)N[C@H]1CCCNC1` [Example 882, 3-amino-6-[3-({[(4-fluorophenyl)carbonyl]amino}methyl)phenyl]-N-[(3S)-piperidin-3-yl]pyrazine-2-carboxamide]: the IC50 was under 50 nM.

Take `Nc1ncc(-c2cccc(CNC(=O)c3cc(Cl)sc3Cl)c2)nc1C(=O)N[C@H]1CCCNC1` [Example 992, 3-amino-6-[3-({[(2,5-dichloro-3-thienyl)carbonyl]amino}methyl)phenyl]-N-[(3S)-piperidin-3-yl]pyrazine-2-carboxamide]: the IC50 was under 50 nM.

The same assay, now with this note: Table 11; Chk1 only; read-out: Chk1 IC50.
On to `CNC(=O)c1nc(-c2cnc3ccccc3c2)cnc1N` [Example 503, 3-amino-N-methyl-6-quinolin-3-ylpyrazine-2-carboxamide], for which the IC50 was 1000 to 10000 nM.

`Nc1ncc(-c2cccc(CO)c2)nc1-c1nc(-c2cccs2)n[nH]1` [Example 583, (3-{5-amino-6-[3-(2-thienyl)-1H-1,2,4-triazol-5-yl]pyrazin-2-yl}phenyl)methanol]: the IC50 fell in the range of 50 to 1000 nM.

For the compound `CNC(=O)c1nc(-c2cccc(CNC3CCc4c(F)cc(Br)cc43)c2)cnc1N` (centres unmarked) [Example 470, 3-amino-6-(3-{[(6-bromo-4-fluoro-2,3-dihydro-1H-inden-1-yl)amino]methyl}phenyl)-N-methylpyrazine-2-carboxamide], the IC50 lay within 50 to 1000 nM.

With `CNC(=O)c1nc(-c2cccc(CNC(C)(C)c3ccccc3)c2)cnc1N` [Example 446, 3-amino-N-methyl-6-(3-{[(1-methyl-1-phenylethyl)amino]methyl}phenyl)pyrazine-2-carboxamide], the IC50 was 50 to 1000 nM.

Turning to `CCNC(=O)c1nc(-c2cccc(CN[C@H]3CCc4ccccc43)c2)cnc1N` [Example 488, 3-amino-6-(3-{[(1S)-2,3-dihydro-1H-inden-1-ylamino]methyl}phenyl)-N-ethylpyrazine-2-carboxamide], the IC50 was in the range of 50 to 1000 nM.

Regarding `N=C(NNc1ccccn1)c1nc(-c2cccc(C(=O)NCc3ccccc3)c2)cnc1N` [Example 693, 3-{5-amino-6-[imino(2-pyridin-2-ylhydrazino)methyl]pyrazin-2-yl}-N-(phenylmethyl)benzamide], the concentration for half-maximal inhibition (IC50) was at least 10000 nM.

`CNC(=O)c1nc(-c2cc(C(=O)NC3CCNC3)cc(C(=O)N[C@H]3CCc4ccccc43)c2)cnc1N` (stereo partly drawn) [Example 791, 5-{5-amino-6-[(methylamino)carbonyl]pyrazin-2-yl}-N-[(1S)-2,3-dihydro-1H-inden-1-yl]-N′-pyrrolidin-3-ylbenzene-1,3-dicarboxamide]: the IC50 lay within 50 to 1000 nM.

Regarding `CNC(=O)c1cc(-c2cccc(CNC3CCc4cc(F)c(F)cc43)c2)cnc1N` (centres unmarked) [Example 523, 2-amino-5-(3-{[(5,6-difluoro-2,3-dihydro-1H-inden-1-yl)amino]methyl}phenyl)-N-methylpyridine-3-carboxamide], the IC50 lay within 50 to 1000 nM.

With `CCN1CC[C@H](NC(=O)c2nc(-c3cccc(C(=O)N[C@@H]4c5ccccc5C[C@@H]4O)c3)cnc2N)C1` [Example 731, 3-amino-N-[(3S)-1-ethylpyrrolidin-3-yl]-6-[3-({[(1R,2S)-2-hydroxy-2,3-dihydro-1H-inden-1-yl]amino}carbonyl)phenyl]pyrazine-2-carboxamide], the IC50 is 50 to 1000 nM.

Take `C/C(=N\Nc1ccc(Cl)cc1)c1nc(-c2cccc(C(=O)NCc3ccccc3)c2)cnc1N` [Example 603, 3-{5-amino-6-[(1E)-N-(4-chlorophenyl)ethanehydrazonoyl]pyrazin-2-yl}-N-(phenylmethyl)benzamide]: the IC50 was at least 10000 nM.

The assay is the same for the next values; noted with them: read-out: Chk1 IC50.
For the compound `CNC(=O)c1nc(-c2cccc(C(=O)NCc3ccc4c(c3)OCCO4)c2)cnc1N` [Example 205, 3-amino-6-(3-{[(2,3-dihydro-1,4-benzodioxin-6-ylmethyl)amino]carbonyl}phenyl)-N-methylpyrazine-2-carboxamide], the IC50 was under 50 nM.

Turning to `CNC(=O)c1nc(-c2cccc(C(=O)NCc3c(OC)cccc3OC)c2)cnc1N` [Example 249, 3-amino-6-{3-[({[2,6-bis(methyloxy)phenyl]methyl}amino)carbonyl]phenyl}-N-methylpyrazine-2-carboxamide], the IC50 is 1000 to 10000 nM.

In the case of `CNC(=O)c1nc(-c2cccc(CNCc3c(OC)cccc3OC)c2)cnc1N` [Example 398, 3-amino-6-{3-[({[2,6-bis(methyloxy)phenyl]methyl}amino)methyl]phenyl}-N-methylpyrazine-2-carboxamide], the IC50 lay in the range of 50 to 1000 nM.

Take `CNC(=O)c1nc(-c2cccc(C(=O)N3CCN(C)CC3)c2)cnc1N` [Example 93, 3-amino-N-methyl-6-{3-[(4-methylpiperazin-1-yl)carbonyl]phenyl}pyrazine-2-carboxamide]: the IC50 was 1000 to 10000 nM.

In the case of `CNC(=O)c1nc(-c2cccc(OCCN3CCCCC3)c2)cnc1N` [Example 188, 3-amino-N-methyl-6-{3-[(2-piperidin-1-ylethyl)oxy]phenyl}pyrazine-2-carboxamide], the IC50 was 50 to 1000 nM.

Consider `CNC(=O)c1nc(-c2cccc(-c3noc(-c4ccccc4)n3)c2)cnc1N` [Example 136, 3-amino-N-methyl-6-[3-(5-phenyl-1,2,4-oxadiazol-3-yl)phenyl]pyrazine-2-carboxamide], for which the IC50 fell in the range of 1000 to 10000 nM.

As for `CNC(=O)c1nc(-c2cccc(C(=O)NC(C)c3ccc(F)cc3)c2)cnc1N` (centres unmarked) [Example 112, 3-amino-6-[3-({[1-(4-fluorophenyl)ethyl]amino}carbonyl)phenyl]-N-methylpyrazine-2-carboxamide], the IC50 fell in the range of 1000 to 10000 nM.

As to `CNC(=O)c1nc(-c2cccc(C(=O)NCc3ccc4ccccc4c3)c2)cnc1N` [Example 169, 3-amino-N-methyl-6-(3-{[(naphthalen-2-ylmethyl)amino]carbonyl}phenyl)pyrazine-2-carboxamide], the IC50 was in the range of 50 to 1000 nM.

With `CNC(=O)c1nc(-c2cccc(CNC(=O)c3ccc(C(C)(C)C)cc3)c2)cnc1N` [Example 378, 3-amino-6-{3-[({[4-(1,1-dimethylethyl)phenyl]carbonyl}amino)methyl]phenyl}-N-methylpyrazine-2-carboxamide], the IC50 was in the range of 50 to 1000 nM.

Regarding `CNC(=O)c1nc(-c2cccc(NC(=O)c3cccc(OC)c3)c2)cnc1N` [Example 105, 3-amino-N-methyl-6-[3-({[3-(methyloxy)phenyl]carbonyl}amino)phenyl]pyrazine-2-carboxamide], the IC50 was in the range of 50 to 1000 nM.

As for `CNC(=O)c1nc(-c2cccc(C(=O)NCc3cccc(Oc4ccccc4)c3)c2)cnc1N` [Example 189, 3-amino-N-methyl-6-{3-[({[3-(phenyloxy)phenyl]methyl}amino)carbonyl]phenyl}pyrazine-2-carboxamide], the IC50 lay within 50 to 1000 nM.

With `CNC(=O)c1nc(-c2ccc(CO)cc2)cnc1N` [Example 58, 3-amino-6-[4-(hydroxymethyl)phenyl]-N-methylpyrazine-2-carboxamide], the IC50 was in the range of 1000 to 10000 nM.

As for `CNC(=O)c1nc(-c2cccc(C(=O)NCc3c(F)ccc(Cl)c3F)c2)cnc1N` [Example 282, 3-amino-6-[3-({[(3-chloro-2,6-difluorophenyl)methyl]amino}carbonyl)phenyl]-N-methylpyrazine-2-carboxamide], the IC50 lay in the range of 50 to 1000 nM.

Usually IC50 stands for the concentration needed to halve the response being measured.
